Measurements taken from patent publication US11299524B2, “KIF13B-derived peptide and method of inhibiting angiogenesis” (THE BOARD OF TRUSTEES OF THE UNIVERSITY OF ILLINOIS, priority 2016, dated 2022).

Legend:
HUVECs [1] = experiment: VEGF-induced capillary network formation on […] in vitro; type: cell-based, human; settings: synthetic peptide added
Experimental: (§1) Collagen invasion assay was performed as previously described (Kang, et al. (2011) J. Biol. Chem. 286:42017-26). In vitro capillary network formation on […] (BD Biosciences, San Jose, Calif.) and scratch wound healing assay were performed as previously described (Humtsoe, et al. (2010) Mol. Cell Biol. 30:1593-1606). Fibrin gel sprouting assay was performed as described by Nakatsu & Hughes ((2008) Methods Enzymol. 443:65-82). VEGF (2.2 nmol/L) stimulation was used for all in vitro angiogenesis assays. Transwell migration assay was performed as described by Kaplan, et al. ((2011) Free Radical Res. 45:1124-35) using VEGF (4.4 nmol/L), sphingosine-1-phosphate (S1P) (1 μmol/L), or basic fibroblast growth factor (bFGF) (50 ng/mL) in the presence or absence of kinesin-derived angiogenesis inhibitor (DUF2C5; residues 1238-1260 of KIF13B) at varying concentrations.
To test the bioactivity of the truncated mutant of KIF13B, DUF2C was expressed by lentivirus vector in HUVECs. […] The collagen invasion system (Kang, et al. (2011) J. Biol. Chem. 286:42017-42026) was used as another angiogenesis assay to test the peptides. After infection with control lentivirus, FLAG-DUF2C, or FLAG-DUF2, HUVECs were seeded on collagen gels. Cell invasion in response to proangiogenic stimuli SIP and VEGF in the gel was monitored for up to 24 hours.
Bioactivities in two-dimensional capillary network formation assay were assessed in HUVECs expressing KIF13B truncated mutants or vector controls. HUVECs were infected with lentiviruses encoding FLAG-C2, -C3, -C5, -C8, -C9, or vector.
(§2) Changes in VEGF-induced network formation assay were assessed in […] plugs. […] VEGF-induced EC sprouting was also determined by 3-dimensional culture of HUVECs on beads (Nakatsu & Hughes (2008) Methods Enzymol. 443:65-82).

HUVECs [2] = experiment: uptake of biotin-tagged peptides by HUVECs, flow cytometry; type: cell-based, human; settings: biotin-tagged peptide, 2 hours incubation
Experimental: Next, EC uptake of the peptides by HUVECs was determined. Both DUF2C5 and CT23 were designed to have high pI (pH at which the molecules carry no net charge), pI 12.1 and 10.4, respectively; thus, in neutral pH, both peptides have a positive charge important for cellular uptake (Jones, et al. (2005) Br. J. Pharmacol. 145:1093-1102). DUF2C5 and CT23 were synthesized with a biotin-tag and visualized using streptavidin-[…].

HUVECs [3] = experiment: fibrin gel sprouting assay (3-dimensional culture of HUVECs on beads); type: cell-based, human; settings: 1 μmol/L, VEGF-induced EC sprouting
Experimental: as §1, §2

[4] = tested on: choroidal neovascularization; experiment: laser-induced choroidal neovascularization (CNV); type: in vivo, mouse; settings: eye drop, 2 μg/eye daily
Experimental: FIG. 5A and FIG. 5B show the effect of DUF2C5 treatment on laser-induced CNV. FIG. 5A, Dose-dependent effect of DUF2C5 was tested by intravitreal injection of DUF2C5 0.5 μg, 2 μg, and 10 μg after laser photocoagulation. Neovascularization was assessed by the area of ILB4-staining, and plotted in the graph (N=5 mice in each group, and 4 laser burns were induced in each mouse). Asterisks indicate p<0.05, One-way ANOVA. FIG. 5B, Effect of DUF2C5 as an eye drop was tested in CNV model. After laser photocoagulation, mice were treated daily with either control peptide (2 μg/eye) or DUF2C5 (2 μg/eye) for […]. Neovascularization was assessed by the area of ILB4-staining, and plotted in the graph (N=7 mice in each group, and 4 laser burns were induced in each mouse). Asterisks indicate p<0.05, t-test. […]
Choroidal neovascularization was evaluated by ocular coherence tomography (OCT) and fluorescein angiography at day 7 and 14. […]
The experiments were terminated at day 14 after taking images of OCT and angiography. […] The area of vascular leakage and CNV was quantified using confocal image of CNV staining for lectin B4 using MetaMorph software. Data was plotted and analyzed statistically with Prism 6 (Graph Pad, San Diego Calif.). […]
The effect of DUF2C5 as an eye drop was subsequently tested. […] Neovascularization was assessed by OCT, fluorescein angiography, and staining with ILB4.

EGFR = target: T1, EGFR (Homo sapiens, UniProt P00533); experiment: pull-down on streptavidin beads followed by mass spec analysis; type: binding; settings: peptide immobilized on streptavidin beads
T1 construct: endogenous in cells
Experimental: (§3) Additionally, the sequence of DUF2C5 is highly conserved in mammalian KIF13B. […] To further test the specificity of DUF2C5, pull-down of proteins was conducted using DUF2C5 or control peptide (CT23) immobilized on streptavidin beads followed by mass spec analysis of the binding proteins. This analysis detected the presence of KIF13B, VEGFR2, and co-receptor NRP1 (number of hits were 28, 11, and 5, respectively). Tie2, Par1, S1PR1, and FGFR were not found. Other cargo for KIF13B (e.g., CentA, hDlg) were also not found. […] The affinity of each receptor tyrosine kinase was subsequently tested via surface plasmon resonance (SPR) with BIACORE (UIC, RRC), using DUF2C5 and CT23 on an avidin-coated chip, and recombinant cytosolic domain of kinases (Fisher Scientific).

PDGFRβ = target: T2, PDGFRβ (Homo sapiens, UniProt P09619); experiment: as above; type: binding; settings: peptide immobilized on streptavidin beads
T2 construct: endogenous in cells
Experimental: as §3

T2 sequence (P09619 33-1106): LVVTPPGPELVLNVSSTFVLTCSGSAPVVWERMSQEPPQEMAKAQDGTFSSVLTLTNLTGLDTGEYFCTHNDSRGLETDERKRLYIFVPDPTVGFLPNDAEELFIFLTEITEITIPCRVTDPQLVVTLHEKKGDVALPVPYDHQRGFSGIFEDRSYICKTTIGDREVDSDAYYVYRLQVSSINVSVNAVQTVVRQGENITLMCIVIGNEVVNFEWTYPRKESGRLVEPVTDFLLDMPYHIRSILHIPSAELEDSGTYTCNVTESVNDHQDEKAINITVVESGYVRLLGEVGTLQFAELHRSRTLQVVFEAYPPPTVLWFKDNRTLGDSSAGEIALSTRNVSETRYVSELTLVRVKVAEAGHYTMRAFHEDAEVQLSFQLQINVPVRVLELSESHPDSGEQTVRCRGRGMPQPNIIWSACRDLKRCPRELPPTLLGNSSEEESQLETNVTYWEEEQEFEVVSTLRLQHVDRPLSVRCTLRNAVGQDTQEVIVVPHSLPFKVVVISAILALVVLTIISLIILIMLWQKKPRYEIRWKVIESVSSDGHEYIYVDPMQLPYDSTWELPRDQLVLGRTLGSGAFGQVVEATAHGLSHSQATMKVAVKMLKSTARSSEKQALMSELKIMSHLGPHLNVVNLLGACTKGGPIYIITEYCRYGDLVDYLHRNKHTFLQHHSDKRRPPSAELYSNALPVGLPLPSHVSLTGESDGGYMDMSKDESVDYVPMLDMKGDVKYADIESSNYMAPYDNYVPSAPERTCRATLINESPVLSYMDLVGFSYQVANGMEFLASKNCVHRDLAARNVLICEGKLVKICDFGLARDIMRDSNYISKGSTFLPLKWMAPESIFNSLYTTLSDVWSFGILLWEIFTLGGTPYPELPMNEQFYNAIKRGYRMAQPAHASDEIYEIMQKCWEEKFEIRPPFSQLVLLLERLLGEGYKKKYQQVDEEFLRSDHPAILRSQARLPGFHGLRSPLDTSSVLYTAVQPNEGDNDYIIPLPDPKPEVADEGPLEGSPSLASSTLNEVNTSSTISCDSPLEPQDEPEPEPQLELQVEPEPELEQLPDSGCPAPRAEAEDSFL

EGFR among binding proteins, number of hits (EGFR): did not interact
PDGFRβ among binding proteins, number of hits (PDGFRβ): did not interact
Substance: CT23: negative control, C-terminal 23-amino acid peptide, residues 1650 to 1672 of KIF13B (RVRASELRSFSRMLAGDPGCSPG)
VEGF-induced network formation (HUVECs [1]): had no effect
uptake of the peptides by HUVECs (HUVECs [2]): shown to internalize
number of branching point structures per bead (HUVECs [3]): 4-6 branches
number of sprouts per bead (HUVECs [3]): 13-16 sprouts
neovascularization (laser-induced CNV) [4]: did not have any effect
